Tests used:
Autotaxin (ATX) = Autotaxin (ATX) (Homo sapiens (Human), UniProt Q13822); test: ATX bioactivity assay (Amplex Red / choline oxidase / HRP fluorescence, LPC 16:0 substrate); format: biochemical; settings: 30 min room temperature
CYP3A4 = CYP3A4 (Homo sapiens (Human), UniProt P08684); test: Time-dependent inhibition of CYP3A4 (TDI assay, human liver microsomes); format: in vitro ADME; settings: for CYP3A4 TDI % @ 10 μM: human liver microsomes, Midazolam substrate, 30 min with NADPH vs 0 min; for time-dependent inhibition on CYP3A4 (conclusion): conclusion drawn from Table 3, 10 μM
CYP3A4, sequence (P08684 whole entry): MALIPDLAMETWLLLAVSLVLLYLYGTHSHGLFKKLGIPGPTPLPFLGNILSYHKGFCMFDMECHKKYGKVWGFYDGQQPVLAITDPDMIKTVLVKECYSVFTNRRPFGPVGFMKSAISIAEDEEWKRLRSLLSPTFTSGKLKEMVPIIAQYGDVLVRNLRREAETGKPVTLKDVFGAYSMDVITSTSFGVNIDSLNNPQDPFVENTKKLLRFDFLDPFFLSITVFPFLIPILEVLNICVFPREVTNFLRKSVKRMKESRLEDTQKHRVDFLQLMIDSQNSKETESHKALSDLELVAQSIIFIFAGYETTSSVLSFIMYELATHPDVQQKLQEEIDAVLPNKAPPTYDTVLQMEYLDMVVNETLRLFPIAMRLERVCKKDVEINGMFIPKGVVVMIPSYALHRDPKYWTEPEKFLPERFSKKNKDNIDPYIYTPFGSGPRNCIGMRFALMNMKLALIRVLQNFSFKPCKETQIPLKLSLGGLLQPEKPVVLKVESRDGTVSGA
Outline: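 Human liver microsomes (final 1 mg/mL) preincubated with test compound for 0 min without NADPH or 30 min with NADPH in 100 mM K-phosphate pH 7.4, 37 °C. Aliquot then diluted into midazolam substrate plus NADPH and incubated 15 min at 37 °C. Quenched with acetonitrile; metabolite read by LC-MS/MS.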

LPA18:2 in mouse plasma = test: Inhibition of LPA in mouse plasma (plasma LPA18:2 assay, LC-MS/MS); format: biochemical, CD1 mice; settings: fresh CD1 mouse plasma, LPA18:2, 37° C. for 120 min
Description: Effect Example 2. Inhibition of LPA in Mouse Plasma by Compounds
20 mM stock solutions of the compounds were prepared with DMSO and then diluted to 1 mM, which was subjected to a serial 3-fold dilution to yield 10 working solutions.
Collection of Fresh Mouse Plasma:
CD1 mice were euthanized by CO2 inhalation. Approximately 1 mL of whole blood was taken by cardiac puncture, with EDTA-K2 for anticoagulation. The blood was centrifuged at 3220 g for 10 min at 4° C. for plasma collection.
Reactions were performed in a 96-well plate, and the samples were tested in duplicate. 1 μL of each working solution was added to 100 μL of plasma, with the final concentrations of […]. 1 μL of DMSO was added to plasma to serve as blank. The samples were incubated in a water bath at 37° C. for 120 min, and 600 μL of 10 μM tolbutamide in methanol was added to terminate the reaction. Tolbutamide also served as an internal standard. After 5 min of vortex mixing, the samples were centrifuged at 3220 g for 45 min at 4° C. to precipitate the protein. 100 μL of the supernatant was transferred to a new plate, diluted with water based on LC-MS response and peak shapes, mixed well and analyzed by LC-MS/MS.
LPA18:2 was quantified using peak area ratio (LPA18:2/internal standard), requiring no standard curve. For test compounds of different concentrations, LPA data was represented by a percentage decrease of LPA: 100-[((LPA peak area ratio of compound)/(LPA peak area ratio of control))×100]. IC50 was calculated using Graphpad Prism 6.0 software.

SMILES	IC50 (Autotaxin (ATX)) [nM]	CYP3A4 TDI % @ 10 μM (CYP3A4) [%]	time-dependent inhibition on CYP3A4 (conclusion) (CYP3A4)	IC50 (LPA18:2 in mouse plasma) [nM]
CCc1nc2ncc(N3CCN(CC(=O)N4CC(O)C4)CC3)cn2c1N(C)c1nc(-c2ccc(F)cc2)c(C#N)s1 [Compound S-0021, 2-((2-ethyl-6-(4-(2-(3-hydroxyazetidin-1-yl)-2-oxoethyl)piperazin-1-yl)imidazo[1,2-a]pyrimidin-3-yl)(methyl)amino)-4-(4-fluorophenyl)thiazole-5-carbonitrile]	102	1.67	no time-dependent inhibition on CYP3A4	790
CCn1nc2c(F)cc(N3CCN(CC(=O)N4CC(O)C4)CC3)cc2c1N(C)c1nc(-c2ccc(F)cc2)c(C#N)s1 [Compound S-0025, 2-((2-ethyl-7-fluoro-5-(4-(2-(3-hydroxyazetidin-1-yl)-2-oxoethyl)piperazin-1-yl)-2H-indazol-3-yl)(methyl)amino)-4-(4-fluorophenyl)thiazole-5-carbonitrile]	88	34.21	weak time-dependent inhibition on CYP3A4	131
CCc1oc2ccc(N3CCN(CC(=O)N4CC(O)C4)CC3)nc2c1N(C)c1nc(-c2ccc(F)cc2)c(C#N)s1 [Compound S-0097, 2-((2-ethyl-5-(4-(2-(3-hydroxyazetidin-1-yl)-2-oxoethyl)piperazin-1-yl)furo[3,2-b]pyridin-3-yl)(methyl)amino)-4-(4-fluorophenyl)thiazole-5-carbonitrile]	160	12.51	no time-dependent inhibition on CYP3A4	160
CCc1[nH]c2ccc(N3CCN(CC(=O)N4CC(O)C4)CC3)nc2c1N(C)c1nc(-c2ccc(F)cc2)c(C#N)s1 [Compound S-0098, 2-((2-ethyl-5-(4-(2-(3-hydroxyazetidin-1-yl)-2-oxoethyl)piperazin-1-yl)-1H-pyrrolo[3,2-b]pyridin-3-yl)(methyl)amino)-4-(4-fluorophenyl) thiazole-5-carbonitrile]	31	37.19	weak time-dependent inhibition on CYP3A4	2
CCN(c1nc(-c2ccc(F)cc2)c(C#N)s1)c1c2nc(N3CCN(CC(=O)N4CC(O)C4)CC3)ccc2nn1CC [Compound S-0117, 2-(ethyl(2-ethyl-5-(4-(2-(3-hydroxyazetidin-1-yl)-2-oxoethyl)piperazin-1-yl)-2H-pyrazolo[4,3-b]pyridin-3-yl)amino)-4-(4-fluorophenyl)thiazole-5-carbonitrile]	12	15.2	no time-dependent inhibition on CYP3A4	38
CCc1nn2c(C)cc(N3CCN(CC(=O)N4CC(O)C4)CC3)nc2c1N(C)c1nc(-c2ccc(F)cc2)c(C#N)s1 [Compound S-0035, 2-((2-ethyl-5-(4-(2-(3-hydroxyazetidin-1-yl)-2-oxoethyl)piperazin-1-yl)-7-methylpyrazolo[1,5-a]pyrimidin-3-yl)(methyl)amino)-4-(4-fluorophenyl)thiazole-5-carbonitrile]	62	−4.84	no time-dependent inhibition on CYP3A4	300
CCN(c1nc(-c2ccc(F)cc2)c(C#N)s1)c1c2cc(N3CCN(CC(=O)N4CC(O)C4)CC3)cc(F)c2nn1CC [Compound S-0122, 2-(ethyl(2-ethyl-7-fluoro-5-(4-(2-(3-hydroxyazetidin-1-yl)-2-oxoethyl)piperazin-1-yl)-2H-indazol-3-yl)amino)-4-(4-fluorophenyl)thiazole-5-carbonitrile]	25	38.25	weak time-dependent inhibition on CYP3A4	61
CCn1nc2ccc(N3CCN(CC(=O)N4CC(O)C4)CC3)nc2c1N(C)c1nc(-c2ccc(F)cc2)c(C#N)s1 [Compound S-0094, 2-((2-ethyl-5-(4-(2-(3-hydroxyazetidin-1-yl)-2-oxoethyl)piperazin-1-yl)-2H-pyrazolo[4,3-b]pyridin-3-yl)(methyl)amino)-4-(4-fluorophenyl) thiazole-5-carbonitrile]	23	20.88	no time-dependent inhibition on CYP3A4	13
CCc1sc2ccc(N3CCN(CC(=O)N4CC(O)C4)CC3)nc2c1N(C)c1nc(-c2ccc(F)cc2)c(C#N)s1 [Compound S-0129, 2-((2-ethyl-5-(4-(2-(3-hydroxyazetidin-1-yl)-2-oxoethyl)piperazin-1-yl)thieno[3,2-b]pyridin-3-yl)(methyl)amino)-4-(4-fluorophenyl)thiazole-5-carbonitrile]	264	14.42	no time-dependent inhibition on CYP3A4	268
CCc1oc2ccc(N3CCN(CC(=O)N4CC(O)C4)CC3)nc2c1N(CC)c1nc(-c2ccc(F)cc2)c(C#N)s1 [Compound S-0105CP, 2-(ethyl(2-ethyl-5-(4-(2-(3-hydroxyazetidin-1-yl)-2-oxoethyl)piperazin-1-yl)furo[3,2-b]pyridin-3-yl)amino)-4-(4-fluorophenyl)thiazole-5-carbonitrile]	49	0	no time-dependent inhibition on CYP3A4	111
CCN(c1nc(-c2ccc(F)cc2)c(C#N)s1)c1c2cc(N3CCN(CC(=O)N4CC(O)C4)CC3C(F)(F)F)cc(F)c2nn1CC (single isomer, unassigned) [Compound S-0134B, 2-(ethyl (2-ethyl-7-fluoro-5-(4-(2-(3-hydroxyazetidin-1-yl)-2-oxoethyl)-2-(trifluoromethyl)piperazin-1-yl)-2H-indazol-3-yl)amino)-4-(4-fluorophenyl)thiazole-5-carbonitrile]	11	41.82	weak time-dependent inhibition on CYP3A4	98
CCc1c(N(C)c2nc(-c3ccc(F)cc3)c(C#N)s2)c2nc(N3CCN(CC(=O)N4CC(O)C4)CC3)ccc2n1C [Compound S-0128, 2-((2-ethyl-5-(4-(2-(3-hydroxyazetidin-1-yl)-2-oxoethyl)piperazin-1-yl)-1-methyl-1H-pyrrolo[3,2-b]pyridin-3-yl)(methyl)amino)-4-(4-fluorophenyl)thiazole-5-carbonitrile]	142	33.64	weak time-dependent inhibition on CYP3A4	57

From US11591342B2, “Heterocyclic compound, application thereof and pharmaceutical composition comprising same” (SUZHOU SINOVENT PHARMACEUTICALS CO., LTD., priority 2018, dated 2023)
